Results reported in publication PMC6332093, “Development of Radiolabeled Membrane Type-1 Matrix Metalloproteinase Activatable Cell Penetrating Peptide Imaging Probes” (Molecules, 2015).

Molecular target: MT1-MMP (Homo sapiens, UniProt P50281)
Test: MT1-MMP sensitivity of ACPP probes (LC-MS)
Format: biochemical
Settings: peptide 0.1 mM, MT1-MMP 0.13 µM (method section: 15 nM), 60 min, 37 °C, 50 mM Tris, 200 mM NaCl, 10 mM CaCl2, 10 µM ZnCl2, pH 7.5, LC-MS; cleavage between Asn and Leu
Method: The peptides ACPP-A, ACPP-B, and ACPP-C (without SHPP functionality) were screened for MT1-MMP sensitivity by incubating the peptides (0.1 mM) with MT1-MMP (0.13 µM) for 60 min. For ACPP-A, a small fraction (<5%) of the peptide was cleaved between the asparagine and leucine residue (Figure 3A). […] ACPP-A analogs (a peptide probe lacking the 5-amino-3-oxapentanoic acid linker residues and its linear analog) were also synthesized and tested for MT1-MMP sensitivity, showing also a low degree of activation (Figure S2). Accordingly, a recent study found a poor response of a genetically encoded MT1-MMP biosensor employing the same substrate. […] Therefore, further in-depth analysis of the MT1-MMP specificity and in vivo characteristics of ACPP-A was not performed.
Figure 3 LC-MS characterization of ACPP-A, ACPP-B, and ACPP-C (0.1 mM) incubated with MT1-MMP (0.13 µM) for 60 min. The left and right graphs show the UV absorbance chromatogram and the mass spectra of the UV-peaks bracketed by the arrowheads, respectively. […]
ACPP-A, ACPP-B, and ACPP-C (0.1 mM) were incubated with 15 nM MT1-MMP in a mixture of 50 mM Tris, 200 mM NaCl, 10 mM CaCl2 and 10 µM ZnCl2 at pH 7.5 at 700 rpm and 37 °C. After 1 h, the enzyme was quenched by the addition of TFA (10% v/v), and the reaction mixture was analyzed by LC-MS.

SMILES: CC(=O)N[C@H](Cc1ccc(O)cc1)C(=O)N[C@H](CCC(=O)O)C(=O)N[C@H](CCC(=O)O)C(=O)N[C@H](CCC(=O)O)C(=O)N[C@H](CCC(=O)O)C(=O)N[C@H](CCC(=O)O)C(=O)N[C@H](CCC(=O)O)C(=O)N[C@H](CCC(=O)O)C(=O)N[C@H](CCC(=O)O)C(=O)N[C@H](CCC(=O)O)C(=O)NCCOCC(=O)N[C@H]1CSSC[C@@H](C(=O)N[C@@H](CC(N)=O)C(=O)N[C@@H](CC(C)C)C(=O)N[C@@H](Cc2ccccc2)C(=O)N[C@H](C(=O)N[C@@H](CC(C)C)C(=O)N[C@@H](CCCCN)C(=O)N[C@@H](CC(=O)O)C(=O)NCCOCC(=O)N[C@H](CCCNC(=N)N)C(=O)N[C@H](CCCNC(=N)N)C(=O)N[C@H](CCCNC(=N)N)C(=O)N[C@H](CCCNC(=N)N)C(=O)N[C@H](CCCNC(=N)N)C(=O)N[C@H](CCCNC(=N)N)C(=O)N[C@H](CCCNC(=N)N)C(=O)N[C@H](CCCNC(=N)N)C(=O)N[C@H](CCCNC(=N)N)C(=O)N[C@H](CCNC(=O)CN2CCN(CC(=O)O)CCN(CC(=O)O)CCN(CC(=O)O)CC2)C(N)=O)C(C)C)NC(=O)[C@H](CO)NC(=O)[C@H](CCC(=O)O)NC(=O)[C@H](CCCCN)NC(=O)[C@@H]2CCCN2C1=O [ACPP-A, Ac-y-e9-X-C*PKESC*NLFVLKD-X-r9-dab(DOTA)-NH2]
- fraction of the peptide cleaved by MT1-MMP: < 5%
